Molecules are shown by their SMILES. Read-outs that look alike come from different tables or passages of the source.

These results are taken from publication PMC7229567, “Comparative Pharmacokinetics of Geniposidic Acid, Genipin-1-β-Gentiobioside, Geniposide, Genipin, and Crocetin in Rats after Oral Administration of Crude Gardeniae Fructus and Its Three Processed Products Using LC-MS/MS” (Evidence-based Complementary and Alternative Medicine : eCAM, 2020).

Series [1] is described as follows: Pharmacokinetics in rat plasma after oral administration of CGF, SGF, GCGF and GIGF extracts (LC-MS/MS). As to conditions: for Cmax / half-life / Tmax: male, Sprague-Dawley, rat, plasma, po, 0.75 mL/kg; for Cmax: C max; for Cmax / Tmax / AUC(0–t24) ratio relative to CGF / T 1/2 / C max / T max: rat plasma; for Cmax / half-life / Tmax / T 1/2 / C max / T max: n = 6, mean ± SD; for half-life: T 1/2, rat plasma; for Tmax: T max; for AUC(0–t24) ratio relative to CGF: oral.
Excerpt: (§1) The LC-ESI-MS/MS system is composed of an Agilent 1200 series LC system (Agilent Technologies, USA) including a binary pump, a vacuum degasser unit, an autosampler, and an API 3200 triple quadrupole mass Spectrometer with an ESI source (Concord, Ontario, Canada). Data was acquired by Analyst 1.4.2 software (AB MDS Sciex).
(§2) The Agilent Eclipse plus C18 (4.6 × 100 mm, 1.8 μm) column with a guard column was used to separate multiple ingredients. The mobile phases were methanol (A) and water (B) with a gradient elution of 3–36% A at 0–3 min, 36–36% A at 3–15 min, 36–97% A at 15–16 min, and 97–97% A at 16–26 min, then back from 97% to 3% balanced for 10 min. The flow rate was set at 0.3 mL/min and the column temperature was set at 30°C. The injection volume was 5 μL.
(§3) The detection was operated in Multiple Reaction Monitoring (MRM) mode. The source parameters were as follows: curtain gas, collision gas, ion spray voltage, temperature, ion source gas 1, and ion source gas 2 were set at 20 psi, 5 psi, 5500 V, 450°C, 40 psi, and 40 psi, respectively. Nitrogen was the only gas used in the experiment.
(§4) A total of 24 male Sprague-Dawley rats (weight: 220–250 g) were obtained from animal center of Tianjin University of Traditional Chinese Medicine (Tianjin, China). Those rats were randomly divided into four groups (CGF, SGF, GCGF, and GIGF groups) and were housed in an environmentally controlled room (temperature 20–25°C, humidity 60 ± 5%). The rats were allowed free accessibility to food and water in the first week. They were fasted for 12 h before the experiment with water taken freely. The animal experiments were according to the Guidelines for the Care and Use of Laboratory Animals and were approved by the Animal Ethics Committee of Tianjin University of Traditional Chinese Medicine. The rats were randomly divided into four groups. Six rats in each group were separately given single dose of 0.75 mL/kg (0.9 g·kg herbal medicine) extract solution of four kinds of GFs vial oral administration. Blood samples (about 300 μL) were collected at 0, 0.08, 0.25, 0.5, 1, 2, 4, 6, 8, 10, 12, 14, and 24 h. The blood samples were collected in heparinized tubes and immediately centrifuged at 6000 rpm for 10 min at 4°C. The plasma samples were stored at −80°C until analysis.
(§5) The plasma sample (100 μL) was spiked with 20 μL IS working solution and 10 μL formic acid in an Eppendorf tube. Samples were vortex for 30 s, and then 1 mL acetonitrile was added to precipitate protein. Then samples were vortexed for 2 min and the tubes were centrifuged at 14000 rpm for 10 min. The upper organic phase was transferred into a new tube and evaporated to dryness under a flow of nitrogen gas. The residue was reconstituted with 50% methanol 100 μL. After centrifuging at 14000 rpm for 10 min, the supernatant was transferred into an autosampler vial and a volume of 5 μL was injected into the HPLC-ESI-MS/MS for analysis.
(§6) The pharmacokinetic parameters were calculated using a Drug and Statistics 1.0 (DAS 1.0) software (Medical College of Wannan, China). The pharmacokinetic parameters included time of maximum concentration (Tmax), maximum plasma concentration (Cmax), elimination half-life (T1/2), and area under concentrations curve (AUC0–t and AUC0–∞). All values were expressed as mean ± SD. A paired t test was used to test the difference among these groups.

Series [2] can be described thus: Stability of the analytes in rat plasma QC samples under storage conditions. The class given is in vitro ADME. As to conditions: for Freeze-thaw cycles Remain: three freeze-thaw cycles. On the procedure: Quality control (QC) samples containing geniposidic acid, geniposide, genipin-1-β-gentiobioside, genipin, and crocetin were prepared at LLOQ (10 ng/mL), low (30 ng/mL), medium (300 ng/mL), and high concentrations (3000 ng/mL), spiking with appropriate standard solutions with blank plasma to establish calibration curve and method validation. The samples were prepared by the same procedures for plasma samples as described below. The stability of 5 components in the plasma was obtained by evaluating QC samples at four concentration levels with three replicates in different conditions. The QC samples were kept at room temperature for 12 h to determine the short-term stability. Freeze-thaws stability was tested after three freeze-thaw (−80°C at room temperature) on three consecutive days. Long-term stability was tested by evaluating QC samples stored at −80°C for one month. The stability of the five components in rat plasma was determined by evaluating QC samples stored at different temperature and timing conditions. All the components were stable in the autosampler for 24 h, after three freeze-thaw cycles and at a month at −80°C.

For series [3] the following is noted: in vivo, po.
Excerpt: as §1, §2, §3, §4, §5, §6
Where [4] appears, read: single oral dose of CGF extract 0.75 mL/kg.
The mark [5] stands for this setting: single oral dose of GCGF extract 0.75 mL/kg.
[6] abbreviates: single oral dose of SGF extract 0.75 mL/kg.
The mark [7] stands for this setting: single oral dose of GIGF extract 0.75 mL/kg.

On to `CC(/C=C/C=C(\C)C(=O)O[C@@H]1O[C@H](CO)[C@@H](O)[C@H](O)[C@H]1O)=C\C=C\C=C(C)\C=C\C=C(/C)C(=O)O[C@@H]1O[C@H](CO[C@@H]2O[C@H](CO)[C@@H](O)[C@H](O)[C@H]2O)[C@@H](O)[C@H](O)[C@H]1O` [crocin II], for which, in series [1] (plasma samples after oral administration of GF extracts), the “Detection in rat plasma” value is “not detected”.
Take `COC(=O)C1=CO[C@@H](O)[C@@H]2C(CO)=CC[C@H]12` [Genipin]: the “At −80°C for a month Remain” value in series [2] (10 ng/mL) is recorded as 108%; in series [2] (30 ng/mL), 103%; in series [2] (300 ng/mL), 105%; in series [2] (3000 ng/mL), 101%. Besides, the “Autosampler for 24 h Remain” value turned out to be 95.4% in series [2] (10 ng/mL), 104% in series [2] (30 ng/mL), 90.6% in series [2] (300 ng/mL) and 92.6% in series [2] (3000 ng/mL). The “Freeze-thaw cycles Remain” value in series [2] (30 ng/mL) is given as 95.3%; in series [2] (300 ng/mL) it was 95.9%; in series [2] (3000 ng/mL), 100%. Further, the “Detection in rat plasma” value in series [1] (after administration of the GIGF extract, LLOQ 10 ng/mL) is reported as “not detected”. Also, the Cmax (commonly the peak of the concentration-time curve) is 76.4 ± 40.9 ng/mL in series [1] (setting [4]), 68.5 ± 19.4 ng/mL in series [1] (setting [5]) and 98 ± 41.8 ng/mL in series [1] (setting [6]). The figures for the half-life in series [1] (setting [4]), in series [1] (setting [5]) and in series [1] (setting [6]) were 3.42 ± 1.94 h, 1.39 ± 0.98 h and 1.39 ± 0.88 h, respectively. For the same compound, the values for the Tmax in series [1] (setting [4]), in series [1] (setting [5]) and in series [1] (setting [6]) were 1.11 ± 0.4 h, 1.1 ± 0.52 h and 1 ± 0.55 h, respectively.
As for `CC(/C=C/C=C(\C)C(=O)O[C@@H]1O[C@H](CO[C@@H]2O[C@H](CO)[C@@H](O)[C@H](O)[C@H]2O)[C@@H](O)[C@H](O)[C@H]1O)=C\C=C\C=C(C)\C=C\C=C(/C)C(=O)O[C@@H]1O[C@H](CO[C@@H]2O[C@H](CO)[C@@H](O)[C@H](O)[C@H]2O)[C@@H](O)[C@H](O)[C@H]1O` [crocin I], the “Detection in rat plasma” value in series [3] is listed as “not detected”.
Consider `O=C(O)C1=CO[C@@H](O[C@@H]2O[C@H](CO)[C@@H](O)[C@H](O)[C@H]2O)[C@@H]2C(CO)=CC[C@H]12` [Geniposidic acid], for which the “At −80°C for a month Remain” value in series [2] (10 ng/mL) amounted to 107%; in series [2] (30 ng/mL) it was 98.0%; in series [2] (300 ng/mL) it was 106%; in series [2] (3000 ng/mL), 99.9%. Besides, the “Autosampler for 24 h Remain” value in series [2] (10 ng/mL) is given as 94.7%; in series [2] (30 ng/mL), 96.4%; in series [2] (300 ng/mL), 96.4%; in series [2] (3000 ng/mL) it was 96.7%. Besides, the “Freeze-thaw cycles Remain” value in series [2] (10 ng/mL) stood at 96.3%; in series [2] (30 ng/mL), 101%; in series [2] (300 ng/mL), 107%; in series [2] (3000 ng/mL), 108%. The “AUC(0–t24) ratio relative to CGF” value is recorded as 0.39 in series [1] (GCGF vs CGF (CGF = 1)), 0.15 in series [1] (GIGF vs CGF (CGF = 1)) and 0.22 in series [1] (SGF vs CGF (CGF = 1)). Further, the Cmax was determined as 1020 ± 450 ng/mL in series [1] (setting [4]), 670 ± 432 ng/mL in series [1] (setting [5]), 272 ± 164 ng/mL in series [1] (setting [7]) and 398 ± 108 ng/mL in series [1] (setting [6]). Also, the half-life (commonly the time needed for the level to fall by half in the phase considered) was 2.52 ± 0.64 h in series [1] (setting [4]), 1.72 ± 0.69 h in series [1] (setting [5]), 1.5 ± 0.42 h in series [1] (setting [7]) and 2.93 ± 3.45 h in series [1] (setting [6]). For the same compound, the time of peak concentration (Tmax) (commonly the time at which the peak concentration occurs) in series [1] (setting [4]) is 3.33 ± 1.63 h; in series [1] (setting [5]), 3.33 ± 3.43 h; in series [1] (setting [7]), 2.4 ± 1.26 h; in series [1] (setting [6]), 1.78 ± 0.44 h.
On to `COC(=O)C1=CO[C@@H](O[C@@H]2O[C@H](CO)[C@@H](O)[C@H](O)[C@H]2O)[C@@H]2C(CO)=CC[C@H]12` [Geniposide], for which the “At −80°C for a month Remain” value is 99.2% in series [2] (10 ng/mL), 98.4% in series [2] (30 ng/mL), 94.8% in series [2] (300 ng/mL) and 92.8% in series [2] (3000 ng/mL). Also, the “Autosampler for 24 h Remain” value was found to be 102% in series [2] (10 ng/mL), 95.1% in series [2] (30 ng/mL), 96.3% in series [2] (300 ng/mL) and 91.6% in series [2] (3000 ng/mL). In addition, the “Freeze-thaw cycles Remain” value in series [2] (10 ng/mL) stood at 97.5%; in series [2] (30 ng/mL), 92.8%; in series [2] (300 ng/mL) it was 93.1%; in series [2] (3000 ng/mL), 95.0%. For the same compound, the Cmax in series [1] (setting [4]) turned out to be 1070 ± 598 ng/mL; in series [1] (setting [5]), 581 ± 241 ng/mL; in series [1] (setting [7]), 212 ± 109 ng/mL; in series [1] (setting [6]) it was 455 ± 160 ng/mL. The half-life was 3.21 ± 2.31 h in series [1] (setting [4]), 1.08 ± 0.45 h in series [1] (setting [7]) and 1.61 ± 0.63 h in series [1] (setting [6]). Also, the Tmax in series [1] (setting [4]) was 1.54 ± 1.3 h; in series [1] (setting [5]), 0.86 ± 0.13 h; in series [1] (setting [7]) it was 1.3 ± 0.48 h; in series [1] (setting [6]), 0.89 ± 0.72 h. For the same compound, in series [1] (setting [5]), the “T 1/2” value is reported as 1.44 ± 0.53^∗ h.
Turning to `CC(/C=C/C=C(\C)C(=O)O)=C\C=C\C=C(C)\C=C\C=C(/C)C(=O)O` [Crocetin], the “At −80°C for a month Remain” value in series [2] (10 ng/mL) was 98.4%; in series [2] (30 ng/mL), 101%; in series [2] (300 ng/mL) it was 105%; in series [2] (3000 ng/mL), 103%. For the same compound, the “Autosampler for 24 h Remain” value in series [2] (10 ng/mL) was 97.9%; in series [2] (30 ng/mL) it was 99.9%; in series [2] (300 ng/mL), 96.3%; in series [2] (3000 ng/mL) it was 98.9%. The “Freeze-thaw cycles Remain” value was determined as 102% in series [2] (10 ng/mL), 95.3% in series [2] (30 ng/mL), 98.6% in series [2] (300 ng/mL) and 106% in series [2] (3000 ng/mL). In addition, the peak concentration (Cmax) is 165 ± 52.9 ng/mL in series [1] (setting [4]), 163 ± 76.4 ng/mL in series [1] (setting [5]), 91.2 ± 35.6 ng/mL in series [1] (setting [7]) and 153 ± 81.9 ng/mL in series [1] (setting [6]). Moreover, the half-life in series [1] (setting [4]) is 41.6 ± 57.6 h; in series [1] (setting [5]), 12.8 ± 6.64 h; in series [1] (setting [7]), 31.8 ± 29.3 h; in series [1] (setting [6]), 56.2 ± 43 h. In addition, the Tmax in series [1] (setting [4]) stood at 7.3 ± 3.93 h; in series [1] (setting [5]), 6.43 ± 5.02 h; in series [1] (setting [7]) it was 1.29 ± 2.31 h; in series [1] (setting [6]), 6.61 ± 4.05 h.
As for `COC(=O)C1=CO[C@@H](O[C@@H]2O[C@H](CO[C@@H]3O[C@H](CO)[C@@H](O)[C@H](O)[C@H]3O)[C@@H](O)[C@H](O)[C@H]2O)[C@@H]2C(CO)=CC[C@H]12` [Genipin-1-β-gentiobioside], the “At −80°C for a month Remain” value came out at 95.8% in series [2] (10 ng/mL), 96.3% in series [2] (30 ng/mL), 95.1% in series [2] (300 ng/mL) and 95.1% in series [2] (3000 ng/mL). For the same compound, the “Autosampler for 24 h Remain” value in series [2] (10 ng/mL) was found to be 99.3%; in series [2] (30 ng/mL), 100%; in series [2] (300 ng/mL), 101%; in series [2] (3000 ng/mL), 90.7%. The “Freeze-thaw cycles Remain” value in series [2] (10 ng/mL) is on record as 104%; in series [2] (30 ng/mL) it was 105%; in series [2] (300 ng/mL), 101%; in series [2] (3000 ng/mL), 103%. Besides, the C max in series [1] (setting [4]) stood at 149.90 ± 132.07 ng/mL; in series [1] (setting [5]), 102.92 ± 58.15 ng/mL; in series [1] (setting [7]), 62.94 ± 16.81 ng/mL; in series [1] (setting [6]) it was 79.08 ± 39.47 ng/mL. Moreover, the “T 1/2” value in series [1] (setting [4]) is given as 0.72 ± 0.25 h; in series [1] (setting [5]), 0.78 ± 0.32 h; in series [1] (setting [7]), 0.91 ± 0.36 h; in series [1] (setting [6]) it was 0.61 ± 0.18 h. Moreover, the T max is on record as 0.55 ± 0.33 h in series [1] (setting [4]), 0.78 ± 0.20 h in series [1] (setting [5]), 1.05 ± 0.37^∗# h in series [1] (setting [7]) and 0.61 ± 0.31 h in series [1] (setting [6]).
